What was measured:
Assay type in all cases: cell-based
[1] = system: Huh 7.5.1 cells infected with JFH-1 virus; assay: Microscopic identification of virus suppression effect (cell shape, phase contrast microscope); conditions: 100 μM, JFH-1 infected
Method: About 200,000 Huh 7.5.1 cells were added to a 60×15 mm cell culture dish and every 100 μM of seven ginsenosides (Ro, Re, Rg1, Rg2, Rg3, Rh1, Rh2) per 60×15 mm cell culture dish each was treated. Since it was necessary for ginsenosides in powder formulation to make solutions for the experiments, 50 mM basic concentration solutions for the seven ginsenosides each were prepared and the basic solutions were refrigerated at 4° C. until they were needed.
Non-treatment group (Control), Non-treatment group and DMSO 10 μl treatment group (Control+DMSO 10 μl), JFH-1 virus treatment group (Only JFH-1), JFH-1 virus and DMSO 10 μl treatments group (JFH-1+DMSO 10 μl), JFH-1 virus and Ro 100 uM treatments group (JFH-1+Ro 100 uM), JFH-1 virus and Re 100 uM treatments group (JFH-1+Re 100 uM), JFH-1 virus and Rg1 100 uM treatments group (JFH-1+Rg1 100 uM), JFH-1 virus and Rg2 100 uM treatments group (JFH-1+Rg2 100 uM), JFH-1 virus and Rg3 100 uM treatments group (JFH-1+Rg3 100 uM), JFH-1 virus and Rh1 100 uM treatments group (JFH-1+Rh1 100 uM), JFH-1 virus and Rh2 100 uM treatments group (JFH-1+Rh2 100 uM), JFH-1 virus and Rg1 100 uM treatments group (JFH-1+Rg1 100 uM).
(§1) The experiment was carried out as follow. First, 200,000 Huh 7.5.1 cells were placed in a 60×15 mm cell culture dish. Next day, Japanese Fulminant Hepatitis-1 virus (JFH-1) stock vial which was stored in −70° C. refrigerator was taken out and thawed out in a container filled with ice-water. The culture medium was collected from the cultured 60×15 mm cell culture dish, washed with 1×PBS and collected, again. 1.5 ml of JFH-1 virus solution per 60×15 mm cell culture dish each was added. The dish was shaken to cover the surface sufficiently. The dish was laid in a 5% CO2 incubator at 37° C. for 6 hours and after that, the supernatant was draw out. 1×PBS was spread on the cell surface as slow as possible and after one time washing, cells were collected. 5 ml of cell culture media was added to control and JFH-1 treatments groups. At the last step of virus-infection, 5 ml CM and each 10 μM of ginsenosides which was set to 50 mM concentration were added to the cell culture media. After that, the cell culture media was laid in a 5% CO2 incubator at 37° C. After 72 hours, the following steps were carried out.
As described in the above Example 3, each 100 μM of seven ginsenosides (Ro, Re, Rg1, Rg2, Rg3, Rh1, Rh2) was treated to Huh 7.5.1 cells. After 24 hours and 72 hours, the shapes of Huh 7.5.1 cells were observed using a phase contrast microscope (ECLIPSE TE300, Nicon) of 400× magnifications.

[2] = system: Hepatitis C virus (JFH-1); assay: Real-time PCR against JFH-1 mRNA in Huh 7.5.1 cells; conditions: 100 μM, 72 hours
Method: as §1, with “At the last step of virus-infection, 5 ml CM and each 10 μM of ginsenosides which was set to 50 mM concentration were added to the cell culture media.” left out
As described in the above Example 3, the Huh 7.5.1 cells were treated with each 100 μM of seven ginsenosides (Ro, Re, Rg1, Rg2, Rg3, Rh1, Rh2). After 72 hours, a real-time PCR against JFH-1 mRNA was carried out. […]
Specific real-time PCR carried out was as follow. […] After that, total RNA was extracted from the cells treated by the above described method by using Rneasy mini kit (QIAGEN) and quantified by using Nanodrop 1000 (Thermo Scientific). […]

TNF-α = assay: Real-time PCR for TNF-α level in virus-infected Huh 7.5.1 cells
Method: To identify a mechanism of apoptosis action, virus-infected Huh 7.5.1 cells were treated with ginsenoside Rg3 and conducted real-time PCR (Taqman Real-time Quantitative RT-PCR Assay for HCV RNA Detection) to estimate TNF-α level.
First, a total number of 50,000 Huh 7.5.1 cells were incubated in 24 well and a total RNA was extracted from the above stated treated cells using Rneasy mini kit (QIAGEN Corp.). And then, the total RNA was quantified by Nanodrop 1000 (Thermo Scientific Corp.), and manufactured cDNA by conducting RT PCR (Reverse Transcription-PCR) using i cycler, (BIO-RAD Co.). After the synthesized cDNAs were reacted with TaqMan GX Master Mix (Applied Biosystems, Branchburg, N.J.), TNF-α, B-actin mRNAs were quantified by 96 well real-time PCR (StepOne Plus Sequence detector system, Applied Biosystems). Verified primer/probe set was purchased to conduct the TaqMan Gene Expression assay in this experiment (Gene: TNF-α (TNF-alpha) # Hs01113624_g1, Gene Symbol: ACTB # Hs99999903_m1).

## CC(C)=CCC[C@](C)(O)[C@H]1CC[C@]2(C)[C@@H]1[C@H](O)C[C@@H]1[C@@]3(C)CC[C@H](O[C@@H]4O[C@H](CO)[C@@H](O)[C@H](O)[C@H]4O[C@@H]4O[C@H](CO)[C@@H](O)[C@H](O)[C@H]4O)C(C)(C)[C@@H]3CC[C@]12C [ginsenoside Rg3]
[1]; 24 hours after treatment
  shapes of Huh 7.5.1 cells: fuses cells
[1]; 72 hours after treatment
  shapes of Huh 7.5.1 cells: fuses cells
[2]
  JFH-1 mRNA: remarkably decreased
TNF-α
  level of TNF-α: remarkably decreased

Reference: patent publication US8865659B2, “Compositions for prevention or treatment of Hepatitis C virus containing ginsenoside Rg3 as an active ingredient” (priority 2012, dated 2014)
